pEC50: −log10 of the molar value.

CC50 and EC50 data for nine compounds are collected here from patent US20220409619A1, “INHIBITORS OF HUMAN IMMUNODEFICIENCY VIRUS REPLICATION” (VIIV HEALTHCARE UK (No. 5) LIMITED, priority 2019, published 2022).

A short description of data set [1]: Compound cytotoxicity, XTT-based colorimetric assay. It is filed as cell-based. The following applies: human; uninfected MT2 cells, day 4, XTT-based colorimetric assay. Here is the method: Compound cytotoxicity and the corresponding CC50 values were determined using the same protocol as described in the antiviral assay except that uninfected cells were used. Cytotoxicity was assessed on day 4 in uninfected MT2 cells by using a XTT (2,3-bis[2-Methoxy-4-nitro-5-sulfophenyl]-2H-tetrazolium-5-carboxyanilide inner salt)-based colorimetric assay (Sigma-Aldrich, St Louis, Mo.).

Data set [2] relates to recombinant NL4-3 virus (nef section replaced with Renilla luciferase gene) in MT-2 cells. As to the kind of experiment: HIV cell culture assay (antiviral activity, luciferase readout). It is filed as cell-based. To be noted: Renilla, NL43. As for the experimental part:
HIV cell culture assay—MT-2 cells, 293T cells and the proviral DNA clone of NL4-3 virus were obtained from the NIH AIDS Research and Reference Reagent Program. MT-2 cells were propagated in RPMI 1640 media supplemented with 10% heat inactivated fetal bovine serum (FBS), 100 μg/ml penicillin G and up to 100 units/mL streptomycin. The 293T cells were propagated in DMEM media supplemented with 10% heat inactivated FBS, 100 μg/mL penicillin G and 100 μg/mL streptomycin. A recombinant NL4-3 proviral clone, in which a section of the nef gene was replaced with the Renilla luciferase gene, was used to make the reference virus used in these studies. The recombinant virus was prepared through transfection of the recombinant NL4-3 proviral clone into 293T cells using Transit-293 Transfection Reagent from Mirus Bio LLC (Madison, Wis.). Supernatent was harvested after 2-3 days and the amount of virus present was titered in MT-2 cells using luciferase enzyme activity as a marker by measuring luciferase enzyme activity. Luciferase was quantitated using the EnduRen Live Cell Substrate from Promega (Madison, Wis.). Antiviral activities of compounds toward the recombinant virus were quantified by measuring luciferase activity in MT-2 cells infected for 4-5 days with the recombinant virus in the presence of serial dilutions of the compound.
The 50% effective concentration (EC50) was calculated by using the exponential form of the median effect equation where (Fa)=1/[1+(ED50/drug conc.)^m] (Johnson V A, Byington R T. Infectivity Assay. In Techniques in HIV Research. ed. Aldovini A, Walker B D. 71-76. New York: Stockton Press. 1990). Curve fitting and analysis were performed with ActivityBase XE Runner software version 9.1.0.4 using model 203 (ID Business Solutions, LTD, Guildford, UK).

One may read the CC50 as the concentration giving 50% cytotoxicity. A low value points to harm at low concentration. One may read the pEC50 as −log10 of the EC50, conventionally taken in molar units. As for `Cn1nc(NS(C)(=O)=O)c2c(Cl)ccc(-n3c([C@H](Cc4cc(F)cc(F)c4)NC(=O)Cn4nc(C(F)F)c5c4C(F)(F)[C@@H]4C[C@H]54)nc(-c4nccc(C(F)(F)F)n4)cc3=O)c21` (atropisomer, axis not shown; (aR)) [Example 6, N-((S)-1-((1′P)-1′-(4-chloro-1-methyl-3-(methylsulfonamido)-1H-indazol-7-yl)-6′-oxo-4-(trifluoromethyl)-1′,6′-dihydro-[2,4′-bipyrimidin]-2′-yl)-2-(3,5-difluorophenyl)ethyl)-2-((3bS,4aR)-3-(difluoromethyl)-5,5-difluoro-3b,4,4a,5-tetrahydro-1H-cyclopropa[3,4]cyclopenta[1,2-c]pyrazol-1-yl)acetamide], the cytotoxic concentration (CC50) at 4 days in data set [1] is above 100 nM. Moreover, the pEC50 in data set [2] was 10.27.
Regarding `Cn1nc(NS(C)(=O)=O)c2c(Cl)ccc(-n3c([C@H](Cc4cc(F)cc(F)c4)NC(=O)Cn4nc(C(F)F)c5c4C(F)(F)[C@@H]4C[C@H]54)nc(-c4ccc(Cl)cn4)cc3=O)c21` (atropisomer, axis not shown; (P)) [Example 24, N-((S)-1-((1P)-1-(4-chloro-1-methyl-3-(methylsulfonamido)-1H-indazol-7-yl)-4-(5-chloropyridin-2-yl)-6-oxo-1,6-dihydropyrimidin-2-yl)-2-(3,5-difluorophenyl)ethyl)-2-((3bS,4aR)-3-(difluoromethyl)-5,5-difluoro-3b,4,4a,5-tetrahydro-1H-cyclopropa[3,4]cyclopenta[1,2-c]pyrazol-1-yl)acetamide], the CC50 at 4 days in data set [1] is above 100 nM. Moreover, in data set [2], the negative-log EC50 (pEC50) was 9.43.
`CCOc1cnc(-c2cc(=O)n(-c3ccc(Cl)c4c(NS(=O)(=O)C5CC5)nn(CC(F)F)c34)c([C@H](Cc3cc(F)cc(F)c3)NC(=O)Cn3nc(C(F)F)c4c3C(F)(F)[C@@H]3C[C@H]43)n2)nc1` (atropisomer, axis not shown; (aR)) [Example 29, N-((S)-1-((1′P)-1′-(4-chloro-3-(cyclopropanesulfonamido)-1-(2,2-difluoroethyl)-1H-indazol-7-yl)-5-ethoxy-6′-oxo-1′,6′-dihydro-[2,4′-bipyrimidin]-2′-yl)-2-(3,5-difluorophenyl)ethyl)-2-((3bS,4aR)-3-(difluoromethyl)-5,5-difluoro-3b,4,4a,5-tetrahydro-1H-cyclopropa[3,4]cyclopenta[1,2-c]pyrazol-1-yl)acetamide]: the 50% cytotoxic concentration (CC50) at 4 days in data set [1] was above 100 nM. Also, the negative-log EC50 (pEC50) in data set [2] was 10.28.
For the compound `CCOc1ccc(-c2cc(=O)n(-c3ccc(Cl)c4c(NS(=O)(=O)C5CC5)nn(CC(F)F)c34)c([C@H](Cc3cc(F)cc(F)c3)NC(=O)Cn3nc(C(F)F)c4c3C(F)(F)[C@@H]3C[C@H]43)n2)cn1` (atropisomer, axis not shown; (P)) [Example 37, N-((S)-1-((1P)-1-(4-chloro-3-(cyclopropanesulfonamido)-1-(2,2-difluoroethyl)-1H-indazol-7-yl)-4-(6-ethoxypyridin-3-yl)-6-oxo-1,6-dihydropyrimidin-2-yl)-2-(3,5-difluorophenyl)ethyl)-2-((3bS,4aR)-3-(difluoromethyl)-5,5-difluoro-3b,4,4a,5-tetrahydro-1H-cyclopropa[3,4]cyclopenta[1,2-c]pyrazol-1-yl)acetamide], in data set [1], the 50% cytotoxic concentration (CC50) at 4 days is above 100 nM. The pEC50 in data set [2] is 8.43.
For `O=C(Cn1nc(C(F)F)c2c1C(F)(F)[C@@H]1C[C@H]21)N[C@@H](Cc1cc(F)cc(F)c1)c1nc(-c2ccc(C(F)(F)F)nc2)cc(=O)n1-c1ccc(Cl)c2c(NS(=O)(=O)C3CC3)nn(CC(F)F)c12` (atropisomer, axis not shown; (P)) [Example 38, N-((S)-1-((1P)-1-(4-chloro-3-(cyclopropanesulfonamido)-1-(2,2-difluoroethyl)-1H-indazol-7-yl)-6-oxo-4-(6-(trifluoromethyl)pyridin-3-yl)-1,6-dihydropyrimidin-2-yl)-2-(3,5-difluorophenyl)ethyl)-2-((3bS,4aR)-3-(difluoromethyl)-5,5-difluoro-3b,4,4a,5-tetrahydro-1H-cyclopropa[3,4]cyclopenta[1,2-c]pyrazol-1-yl)acetamide] the same measures were above 100 nM and 9.41.
In turn, `CCOc1ncc(-c2cc(=O)n(-c3ccc(Cl)c4c(NS(=O)(=O)C5CC5)nn(CC(F)F)c34)c([C@H](Cc3cc(F)cc(F)c3)NC(=O)Cn3nc(C(F)F)c4c3C(F)(F)[C@@H]3C[C@H]43)n2)cn1` (atropisomer, axis not shown; (P)) [Example 49, N-((S)-1-((1P)-1-(4-chloro-3-(cyclopropanesulfonamido)-1-(2,2-difluoroethyl)-1H-indazol-7-yl)-2′-ethoxy-6-oxo-1,6-dihydro-[4,5′-bipyrimidin]-2-yl)-2-(3,5-difluorophenyl)ethyl)-2-((3bS,4aR)-3-(difluoromethyl)-5,5-difluoro-3b,4,4a,5-tetrahydro-1H-cyclopropa[3,4]cyclopenta[1,2-c]pyrazol-1-yl)acetamide] came in with a CC50 at 4 days in data set [1] above 100 nM. The negative logarithm of the EC50 (pEC50) in data set [2] is 9.24.
Take `O=C(Cn1nc(C(F)F)c2c1C(F)(F)[C@@H]1C[C@H]21)N[C@@H](Cc1cc(F)cc(F)c1)c1nc(-c2nccc(C(F)F)n2)cc(=O)n1-c1ccc(Cl)c2c(NS(=O)(=O)C3CC3)nn(CC(F)F)c12` (atropisomer, axis not shown; (aR)) [Example 27, N-((S)-1-((1′P)-1′-(4-chloro-3-(cyclopropanesulfonamido)-1-(2,2-difluoroethyl)-1H-indazol-7-yl)-4-(difluoromethyl)-6′-oxo-1′,6′-dihydro-[2,4′-bipyrimidin]-2′-yl)-2-(3,5-difluorophenyl)ethyl)-2-((3bS,4aR)-3-(difluoromethyl)-5,5-difluoro-3b,4,4a,5-tetrahydro-1H-cyclopropa[3,4]cyclopenta[1,2-c]pyrazol-1-yl)acetamide]: the CC50 at 4 days in data set [1] is above 100 nM. The pEC50 in data set [2] is 9.89.
`Cc1ccnc(-c2cc(=O)n(-c3ccc(Cl)c4c(NS(C)(=O)=O)nn(C)c34)c([C@H](Cc3cc(F)cc(F)c3)NC(=O)Cn3nc(C(F)F)c4c3C(F)(F)[C@@H]3C[C@H]43)n2)c1` (atropisomer, axis not shown; (P)) [Example 16, N-((S)-1-((1P)-1-(4-chloro-1-methyl-3-(methylsulfonamido)-1H-indazol-7-yl)-4-(4-methylpyridin-2-yl)-6-oxo-1,6-dihydropyrimidin-2-yl)-2-(3,5-difluorophenyl)ethyl)-2-((3bS,4aR)-3-(difluoromethyl)-5,5-difluoro-3b,4,4a,5-tetrahydro-1H-cyclopropa[3,4]cyclopenta[1,2-c]pyrazol-1-yl)acetamide] showed a CC50 at 4 days in data set [1] above 100 nM. Besides, the negative logarithm of the EC50 (pEC50) in data set [2] was 9.51.
Regarding `Cn1nc(NS(C)(=O)=O)c2c(Cl)ccc(-n3c([C@@H](Cc4cc(F)cc(F)c4)NC(=O)Cn4nc(C(F)F)c5c4C(F)(F)[C@@H]4C[C@H]54)nc(-c4ccccc4)cc3=O)c21` (atropisomer, axis not shown; (aR)) [Example 2, N-((R)-1-(1-(4-chloro-1-methyl-3-(methylsulfonamido)-1H-indazol-7-yl)-6-oxo-4-phenyl-1,6-dihydropyrimidin-2-yl)-2-(3,5-difluorophenyl)ethyl)-2-((3bS,4aR)-3-(difluoromethyl)-5,5-difluoro-3b,4,4a,5-tetrahydro-1H-cyclopropa[3,4]cyclopenta[1,2-c]pyrazol-1-yl)acetamide], the cytotoxic concentration (CC50) at 4 days in data set [1] is above 500 nM. In addition, the negative logarithm of the EC50 (pEC50) in data set [2] is 6.72.
